Drawing on US9404081B2, “Pyruvate kinase activators for use in therapy” (AGIOS PHARMACEUTICALS, INC., priority 2011, dated 2016), this text covers activation for 14 molecules.

Common to all, as to format: biochemical
One experiment deals with PKR R532W (Homo sapiens, UniProt P30613, R532W). As to the kind of experiment: PKR R532W Single Point Percent Activation Assay. The settings on record: read-out: Act, % 532W. On the procedure:
PKR R532W Single Point Percent Activation Assay
(§1) A compound described herein was diluted with DMSO and tested at 1 μM concentration. The enzyme was diluted in 1× Buffer: (100 mM KCl, 50 mM Tris 7.5, 5 mM MgCl2, 1 mM DTT, 0.03% BSA). 2 μL of compound solution was first added into wells, and then 180 μL of enzyme solution was added. Assays were assembled except for ADP, and plates were stored for 60 minutes at RT. 20 μL ADP was added to start the assay and assay output was evaluated using OD340 at SpectraMax. The assay was run at room temperature.
Final concentration: PKR R532W (100 ng/well), Tris pH 7.5 (50 mM), KCl (100 mM), MgCl2 (5 mM), ADP (0.36 mM), PEP (0.1 mM), NADH (180 μM), LDH (0.5 units, Sigma 59023), DTT (1 mM) and BSA (0.03%).

For another experiment, the target named is PKR R510Q (Homo sapiens, UniProt P30613, R510Q). Briefly: PKR R510Q Single Point Percent Activation Assay. The note with it: read-out: Act. % 510Q. On the procedure:
PKR R510Q Single Point Percent Activation Assay
as §1
Final concentration: PKR R510Q (40 ng/well), Tris pH 7.5 (50 mM), KCl (100 mM), MgCl2 (5 mM), ADP (0.2 mM), PEP (0.11 mM), NADH (180 μM), LDH (0.5 units, Sigma 59023), DTT (1 mM) and BSA (0.03%).

The target in the next experiment is PKR T384W (Homo sapiens, UniProt P30613, T384W). As to the kind of experiment: PKR T384W Single Point Percent Activation Assay. The settings on record: read-out: Act. % 384W. The method, then:
PKR T384W Single Point Percent Activation Assay
A compound described herein was diluted with DMSO and tested at 1 μM concentration. The enzyme was diluted in 1× Buffer: (100 mM KCl, 50 mM Tris 7.5, 5 mM MgCl2, 1 mM DTT, 0.03% BSA). 2 μL of compound solution was first added into wells, and then 180 μL enzyme solution was added. Assays were assembled except for ADP, and plates were stored for 60 minutes at RT. 20 μL ADP was added to start the assay and assay output was evaluated using OD340 at SpectraMax. The assay was run at room temperature.
Final concentration: PKR T384W soluble (300 ng/well), Tris pH 7.5 (50 mM), KCl (100 mM), MgCl2 (5 mM), ADP (0.08 mM), PEP (0.23 mM), NADH (180 μM), LDH (0.5 units, Sigma 59023), DTT (1 mM) and BSA (0.03%).

Another experiment addresses PKR wt (Homo sapiens, UniProt P30613). Briefly: PKR WT Single Point Percent Activation Assay. On the procedure:
PKR WT Single Point Percent Activation Assay
as §1
Final concentration: PKR wt (100 ng/well), Tris pH 7.5 (50 mM), KCl (100 mM), MgCl2 (5 mM), ADP (0.48 mM), PEP (0.15 mM), NADH (180 μM), LDH (0.5 units, Sigma 59023), DTT (1 mM) and BSA (0.03%).

Chain of PKR R532W (P30613 whole entry R532W): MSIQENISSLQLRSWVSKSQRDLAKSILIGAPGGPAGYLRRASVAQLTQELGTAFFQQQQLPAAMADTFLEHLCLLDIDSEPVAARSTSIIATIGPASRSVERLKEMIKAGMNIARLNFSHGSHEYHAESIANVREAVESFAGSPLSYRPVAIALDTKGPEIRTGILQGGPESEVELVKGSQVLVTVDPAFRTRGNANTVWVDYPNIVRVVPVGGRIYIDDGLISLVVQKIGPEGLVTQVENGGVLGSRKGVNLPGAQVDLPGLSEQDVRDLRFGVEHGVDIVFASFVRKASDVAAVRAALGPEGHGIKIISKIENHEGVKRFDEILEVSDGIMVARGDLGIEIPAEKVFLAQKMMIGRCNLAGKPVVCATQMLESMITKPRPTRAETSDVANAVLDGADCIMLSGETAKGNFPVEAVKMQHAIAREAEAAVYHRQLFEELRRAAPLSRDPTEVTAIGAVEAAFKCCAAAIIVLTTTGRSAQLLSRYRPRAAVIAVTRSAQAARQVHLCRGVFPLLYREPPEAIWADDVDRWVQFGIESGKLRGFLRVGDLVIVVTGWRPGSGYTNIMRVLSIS
Chain of PKR wt (P30613 whole entry): as the sequence (P30613 whole entry R532W) above, with W532R counted along it
Chain of PKR T384W (P30613 whole entry T384W): as the sequence (P30613 whole entry R532W) above, with T384W, W532R counted along it
Chain of PKR R510Q (P30613 whole entry R510Q): as the sequence (P30613 whole entry R532W) above, with R510Q, W532R counted along it

`CC(c1ccc(Cl)c(F)c1)N1CCN(C(=O)c2ccc(NS(=O)(=O)c3cccc4cccnc34)cc2)[C@H](C)C1` (some centres unmarked): the activation at 1 µM on PKR R532W lay within 1 to 100%; at PKR R510Q, 101 to 500%; on PKR T384W, 101 to 500%; at PKR wt, 1 to 100%.

As for `O=C(c1ccc(NS(=O)(=O)c2cccc3cccnc23)cc1)N1C2CCC1CN(Cc1ccc(F)cc1)C2`, the activation at 1 µM on PKR R532W fell in the range of 1 to 100%; at PKR R510Q, 101 to 500%; on PKR T384W, 101 to 500%; on PKR wt it was 1 to 100%.

Regarding `C[C@@H]1CN(Cc2ccccc2)CCN1C(=O)c1ccc(NS(=O)(=O)c2cccc3cccnc23)cc1`, the activation at 1 µM on PKR R532W, at PKR R510Q, on PKR T384W and on PKR wt was 101 to 500% throughout.

Turning to `C[C@H]1CN(Cc2cc(F)cc(F)c2)CCN1C(=O)c1ccc(NS(=O)(=O)c2cccc3cccnc23)cc1`, the activation at 1 µM on PKR R532W was in the range of 1 to 100%; on PKR R510Q, 101 to 500%; on PKR T384W it was 101 to 500%; at PKR wt, 101 to 500%.

With `C[C@@H]1CN(CC2CCCCC2)CCN1C(=O)c1ccc(NS(=O)(=O)c2cccc3cccnc23)cc1`, the activation at 1 µM fell in the range of 101 to 500% at PKR R532W, 101 to 500% at PKR R510Q, 1 to 100% at PKR T384W and 101 to 500% at PKR wt.

For `C[C@@H]1CN(Cc2ccc(Cl)c(F)c2)CCN1C(=O)c1ccc(NS(=O)(=O)c2cccc3cccnc23)cc1`, the activation at 1 µM at PKR R532W was in the range of 101 to 500%; on PKR R510Q, 1 to 100%; on PKR T384W it was 1 to 100%; on PKR wt, 101 to 500%.

Turning to `C[C@@H]1CN(CC2CC2)CCN1C(=O)c1ccc(NS(=O)(=O)c2cccc3cccnc23)cc1`, the activation at 1 µM on PKR R532W lay in the range of 1 to 100%; at PKR R510Q, 101 to 500%; on PKR T384W it was 101 to 500%; on PKR wt, 101 to 500%.

As for `C[C@@H]1CN(Cc2cc(F)c(F)c(F)c2)CCN1C(=O)c1ccc(NS(=O)(=O)c2cccc3cccnc23)cc1`, the activation at 1 µM at PKR R532W is 1 to 100%; on PKR R510Q, 101 to 500%; at PKR T384W, 1 to 100%; on PKR wt it was 1 to 100%.

Turning to `CC(c1c(F)cc(F)cc1F)N1CCN(C(=O)c2ccc(NS(=O)(=O)c3cccc4cccnc34)cc2)[C@@H](C)C1` (some centres unmarked), the activation at 1 µM at PKR R532W, on PKR R510Q, on PKR T384W and on PKR wt was 101 to 500% throughout.

As to `O=C(c1ccc(NS(=O)(=O)c2cccc3cccnc23)cc1)N1CC2CCC(C1)N2CC1CC1`, the activation at 1 µM at PKR R532W was 101 to 500%; at PKR R510Q, 101 to 500%; at PKR T384W, 101 to 500%; on PKR wt, 1 to 100%.

As for `O=C(c1ccc(NS(=O)(=O)c2cccc3cccnc23)cc1)N1CCN(Cc2ccc(F)cc2)c2ccccc21`, the activation at 1 µM on PKR R532W, on PKR R510Q, at PKR T384W and at PKR wt was 1 to 100% each time.

In the case of `C[C@@H]1CN(C(=O)OC2CCCCC2)CCN1C(=O)c1ccc(NS(=O)(=O)c2cccc3cccnc23)cc1`, the activation at 1 µM on PKR R532W, at PKR R510Q, at PKR T384W and at PKR wt was 1 to 100% throughout.

Regarding `CC1CN(Cc2c(F)ccc(F)c2F)CC(C)N1C(=O)c1ccc(NS(=O)(=O)c2cccc3cccnc23)cc1` (centres unmarked), the activation at 1 µM on PKR R532W was in the range of 101 to 500%; on PKR R510Q it was 1 to 100%; on PKR T384W it was 1 to 100%; on PKR wt, 1 to 100%.

On to `C[C@H]1CN(CC2CCOC2)CCN1C(=O)c1ccc(NS(=O)(=O)c2cccc3cccnc23)cc1` (some centres unmarked), for which the activation at 1 µM at PKR R532W lay within 1 to 100%; on PKR R510Q, 101 to 500%; on PKR T384W, 1 to 100%; on PKR wt, 101 to 500%.
